PMC2798750, “Caenorhabditis elegans N-glycan Core β-galactoside Confers Sensitivity towards Nematotoxic Fungal Galectin CGL2” (PLoS Pathogens, 2010)

Molecular target: CGL2 (Coprinopsis cinerea, UniProt Q9P4R8)
Experiment: biochemical

CGL2, sequence (Q9P4R8 whole entry, looked up): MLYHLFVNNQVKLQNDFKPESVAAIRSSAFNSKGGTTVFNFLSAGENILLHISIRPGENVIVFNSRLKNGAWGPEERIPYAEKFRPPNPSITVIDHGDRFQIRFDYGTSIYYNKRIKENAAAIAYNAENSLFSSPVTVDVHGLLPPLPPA

CC(=O)N[C@H]1[C@H](OCCCCCN)O[C@H](CO[C@@H]2O[C@@H](C)[C@@H](O[C@@H]3O[C@H](CO)[C@H](O)[C@H](O)[C@H]3O)[C@@H](O)[C@@H]2O)[C@@H](O)[C@@H]1O [Galβ1,4Fucα1,6GlcNAcβOC5H10NH2]
Kd: ~100 µM
